Assay results: ChEMBL document CHEMBL3797030, “Anti-hepatitis C Virus Natural Product from a Fungus, Penicillium herquei” (J Nat Prod, 2016)

Each compound was assayed on Hepatitis C virus (assay: Antiviral activity against Hepatitis C virus J6/JFH1 infected in human Huh7.5.1 cells assessed as reduction in amount of core HCV protein after 72 hrs by focus formation assay). Settings: J6/JFH1, Huh-7, 72 h.
Type: functional, organism-based, Hepacivirus hominis

| Compound | IC50 |
| --- | --- |
| C[C@H]1CCN2C[C@]34Cc5c([nH]c6ccccc56)C(C)(C)[C@@H]3C[C@]12C(=O)N4 | > 40 µM |
| C[C@H]1CCN2C[C@]34C[C@@]5(C(=O)Nc6c5ccc5c6C(=O)CC(C)(C)O5)C(C)(C)[C@@H]3C[C@]12C(=O)N4 | > 40 µM |
| COc1c(O)c2c3c(c1O)C(=O)[C@@]1(O)C(=C3C(C)=CC2=O)O[C@H](C)C1(C)C | > 40 µM |
| COC1=C(O)C2=C3O[C@H](C)C(C)(C)[C@]3(O)C(=O)c3c(C)cc(O)c(c32)C1=O | > 40 µM |
| COC1=N[C@]23CN4CC[C@@](C)(O)[C@]14C[C@H]2C(C)(C)[C@@]1(C3)C(=O)Nc2c1ccc1c2C(=O)CC(C)(C)O1 | > 40 µM |

Further lines, results first:

| IC50 | Compound |
| --- | --- |
| 5.1 µM | C[C@H]1CCN2CC34Cc5c([nH]c6c7c(ccc56)OC(C)(C)CC7=O)C(C)(C)[C@@H]3CC12C(=O)N4 (some centres not stated) |
| > 40 µM | COc1c(O)c2c3c(c1O)C(=O)[C@@]1(O)C(=C3C(C)=C(O)C2=O)O[C@@H](C)C1(C)C |
